Source: patent publication US20260297081A1, “COMPOUNDS AND METHODS OF TREATING CANCERS” (Cullgen Inc., priority 2023, published 2026)

Columns and labels:
Type in all cases: cell-based
Calu-1 cells = experiment: Anti-proliferation (viability) of NSCLC Calu-1 cells, 3 days (Table 7, FIG. 2B); settings: Homo sapiens, 72 h; Calu-1 cells, 3 days, 10-point serial dilution; read-out: GI IC50 in Calu-1
How it was run: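 Treatment length differs by line: Calu-1 cells receive degrader for 3 days, T47D cells for 6 days, each over a 10-point dilution series. A warhead-modified analogue with unchanged DDB1 binder and linker served as the non-CDK4-binding control.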

MCF7 cells = experiment: Anti-proliferation (viability) of MCF7 cells (Table 7, FIG. 2B); settings: Homo sapiens, MCF7, MCF7 cells, 3-6 days, 10-point serial dilution; read-out: GI IC50 in MCF-7
CDK4 [1] = target: T1, CDK4 (Homo sapiens, UniProt P11802+Q16531); experiment: HiBiT detection of HiBiT-tagged CDK4 protein level in MCF7 cells, 16 hours (Table 8); design: expressed in transfected cells; host or cells: MCF7; settings: MCF7 cells stably expressing HiBiT tagged target proteins; for activity at 0.01 µM: 10 nM, read-out: % CDK4 Relative Level (10 nM); for activity at 0.1 µM: 100 nM, read-out: % CDK4 Relative Level (100 nM)
Procedure: HiBiT detection system quantitatively measures total amounts of HiBiT-tagged proteins using a luminescent based method. MCF7 cells stably expressing HiBiT tagged target proteins were treated with heterobifunctional compounds at indicated concentrations for 16 hours, then lysed with Nano-Glo HiBiT Lytic detection reagents.
Target sequence in this assay (P11802 whole entry): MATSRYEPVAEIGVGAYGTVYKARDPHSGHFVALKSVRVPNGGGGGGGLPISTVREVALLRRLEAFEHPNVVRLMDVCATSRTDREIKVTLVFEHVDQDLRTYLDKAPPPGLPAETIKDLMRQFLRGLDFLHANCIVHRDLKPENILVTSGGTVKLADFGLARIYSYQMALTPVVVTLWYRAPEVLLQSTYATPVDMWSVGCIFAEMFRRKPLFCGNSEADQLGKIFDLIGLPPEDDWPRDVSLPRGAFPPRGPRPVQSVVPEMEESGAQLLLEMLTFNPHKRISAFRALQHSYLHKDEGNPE
Target sequence in this assay (P24385 whole entry partner): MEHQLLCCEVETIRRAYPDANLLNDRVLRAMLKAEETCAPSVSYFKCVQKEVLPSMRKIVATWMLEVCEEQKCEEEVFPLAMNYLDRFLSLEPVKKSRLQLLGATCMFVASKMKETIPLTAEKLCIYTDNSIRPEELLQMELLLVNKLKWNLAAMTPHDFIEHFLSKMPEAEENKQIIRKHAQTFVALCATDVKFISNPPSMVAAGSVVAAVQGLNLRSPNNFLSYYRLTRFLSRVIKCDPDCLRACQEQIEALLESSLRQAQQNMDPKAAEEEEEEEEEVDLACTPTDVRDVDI
Target sequence in this assay (Q16531 2-1140 limits assumed): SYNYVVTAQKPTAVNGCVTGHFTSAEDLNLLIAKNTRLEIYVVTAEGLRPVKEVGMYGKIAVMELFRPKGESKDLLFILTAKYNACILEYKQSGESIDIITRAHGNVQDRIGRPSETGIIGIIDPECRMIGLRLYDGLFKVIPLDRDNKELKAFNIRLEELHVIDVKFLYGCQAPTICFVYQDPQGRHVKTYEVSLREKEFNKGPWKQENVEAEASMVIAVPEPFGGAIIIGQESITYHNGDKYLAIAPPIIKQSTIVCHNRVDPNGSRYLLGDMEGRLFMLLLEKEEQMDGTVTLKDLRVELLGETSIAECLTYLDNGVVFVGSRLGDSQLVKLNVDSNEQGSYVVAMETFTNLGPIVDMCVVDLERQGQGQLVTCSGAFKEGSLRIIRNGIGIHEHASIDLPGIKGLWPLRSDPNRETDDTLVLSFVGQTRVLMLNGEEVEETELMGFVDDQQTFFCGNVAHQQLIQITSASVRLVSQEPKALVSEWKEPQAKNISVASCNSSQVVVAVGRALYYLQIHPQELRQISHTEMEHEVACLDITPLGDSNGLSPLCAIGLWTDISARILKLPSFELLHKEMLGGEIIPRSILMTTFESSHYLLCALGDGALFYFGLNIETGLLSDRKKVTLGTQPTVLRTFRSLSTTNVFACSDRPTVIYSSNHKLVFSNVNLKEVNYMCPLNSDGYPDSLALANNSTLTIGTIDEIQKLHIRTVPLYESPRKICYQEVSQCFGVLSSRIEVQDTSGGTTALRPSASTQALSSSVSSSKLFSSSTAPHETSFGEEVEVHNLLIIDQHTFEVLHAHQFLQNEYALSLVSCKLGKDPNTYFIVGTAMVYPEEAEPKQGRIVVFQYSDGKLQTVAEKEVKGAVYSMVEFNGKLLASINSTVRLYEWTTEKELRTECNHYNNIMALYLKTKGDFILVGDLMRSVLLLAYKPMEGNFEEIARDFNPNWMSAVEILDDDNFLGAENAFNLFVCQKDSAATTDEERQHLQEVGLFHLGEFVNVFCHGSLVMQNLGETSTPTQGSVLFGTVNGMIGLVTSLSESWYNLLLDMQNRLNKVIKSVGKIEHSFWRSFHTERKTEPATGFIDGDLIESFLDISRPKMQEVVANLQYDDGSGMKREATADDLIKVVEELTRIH

CDK4 [2] = target: T1, CDK4; experiment: CDK4 percentage degradation in Calu-1 cells (Table 6); design: Cells that express cyclin D1-3 and CDK4/6 proteins were treated with heterobifunctional compounds; endogenous in cells; host or cells: Calu-1; settings: 16 hours; for inhibition at 0.04 µM: 40 nM; for inhibition at 0.2 µM: 200 nM
How it was run: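 Calu-1 cells exposed to heterobifunctional compounds at 40 nM or 200 nM for 16 h. Cyclin D1 and CDK4 levels measured by Western blot of RIPA lysates (BCA-normalised loading), bands quantified by densitometry and expressed as percentage degradation.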
Target sequence in this assay (P11802 2-303 limits assumed): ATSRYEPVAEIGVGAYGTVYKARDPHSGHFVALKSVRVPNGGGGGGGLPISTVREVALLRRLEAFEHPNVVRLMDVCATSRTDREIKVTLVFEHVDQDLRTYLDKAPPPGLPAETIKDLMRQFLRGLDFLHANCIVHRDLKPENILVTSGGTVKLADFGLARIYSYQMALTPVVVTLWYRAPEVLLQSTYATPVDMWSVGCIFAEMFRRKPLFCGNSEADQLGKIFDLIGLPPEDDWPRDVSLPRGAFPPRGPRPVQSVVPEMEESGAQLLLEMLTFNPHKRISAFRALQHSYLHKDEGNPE
Target sequence in this assay (P24385 whole entry partner): as the sequence (P24385 whole entry partner) above
Target sequence in this assay (Q16531 2-1140 limits assumed): as the sequence (Q16531 2-1140 limits assumed) above

CC(=O)c1c(C)c2cnc(Nc3ccc(CN4CCN(CC(=O)N5CCC6(CCC(Nc7nc(NC(C)C)ccc7C(=O)Nc7ccc(N(C)C)nn7)C6)C5)CC4)cn3)nc2n(C2CCCC2)c1=O (stereo not shown) [CPD-487, 2-((2-(2-(4-((6-((6-acetyl-8-cyclopentyl-5-methyl-7-oxo-7,8-dihydropyrido[2,3-d]pyrimidin-2-yl)amino)pyridin-3-yl)methyl)piperazin-1-yl)acetyl)-2-azaspiro[4.4]nonan-7-yl)amino)-N-(6-(dimethylamino)pyridazin-3-yl)-6-(isopropylamino)nicotinamide]
IC50 (Calu-1 cells): ≤ 10 nM | IC50 (MCF7 cells): < 50 nM | activity at 0.01 µM (CDK4 [1]): 55 to 85% | activity at 0.1 µM (CDK4 [1]): 55 to 85%

CC(=O)c1c(C)c2cnc(Nc3ccc(N4CCC5(CCN(CC(=O)N6CC7(CC(Nc8nc(NC(C)C)ccc8C(=O)Nc8cn9c(n8)CCC9)C7)C6)C5)C4)cn3)nc2n(C2CCCC2)c1=O (stereo not shown) [CPD-565, 2-((2-(2-(7-(6-((6-acetyl-8-cyclopentyl-5-methyl-7-oxo-7,8-dihydropyrido[2,3-d]pyrimidin-2-yl)amino)pyridin-3-yl)-2,7-diazaspiro[4.4]nonan-2-yl)acetyl)-2-azaspiro[3.3]heptan-6-yl)amino)-N-(6,7-dihydro-5H-pyrrolo[1,2-a]imidazol-2-yl)-6-(isopropylamino)nicotinamide]
IC50 (Calu-1 cells): ≤ 10 nM | IC50 (MCF7 cells): < 50 nM | activity at 0.01 µM (CDK4 [1]): > 85% | activity at 0.1 µM (CDK4 [1]): 55 to 85%

[2H]C([2H])([2H])Nc1ccc(C(=O)Nc2ccc(N(C)C)nn2)c(NC2CC3(C2)CN(C(=O)C(C)N2CCN(Cc4ccc(Nc5ncc6c(C)c(C(C)=O)c(=O)n(C7CCCC7)c6n5)nc4)CC2)C3)n1 (stereo not shown) [CPD-456, 2-((2-(2-(4-((6-((6-acetyl-8-cyclopentyl-5-methyl-7-oxo-7,8-dihydropyrido[2,3-d]pyrimidin-2-yl)amino)pyridin-3-yl)methyl)piperazin-1-yl)propanoyl)-2-azaspiro[3.3]heptan-6-yl)amino)-N-(6-(dimethylamino)pyridazin-3-yl)-6-((methyl-d3)amino)nicotinamide]
IC50 (Calu-1 cells): ≤ 10 nM | IC50 (MCF7 cells): < 50 nM | activity at 0.01 µM (CDK4 [1]): 55 to 85% | activity at 0.1 µM (CDK4 [1]): 55 to 85%

CC(=O)c1c(C)c2cnc(Nc3ccc(CN4CCN(CC(=O)N5CC6(CCC(Nc7nc(NC(C)C)ccc7C(=O)Nc7ccc(N(C)C)nn7)C6)C5)CC4)cn3)nc2n(C2CCCC2)c1=O (stereo not shown) [CPD-515, 2-((2-(2-(4-((6-((6-acetyl-8-cyclopentyl-5-methyl-7-oxo-7,8-dihydropyrido[2,3-d]pyrimidin-2-yl)amino)pyridin-3-yl)methyl)piperazin-1-yl)acetyl)-2-azaspiro[3.4]octan-6-yl)amino)-N-(6-(dimethylamino)pyridazin-3-yl)-6-(isopropylamino)nicotinamide]
IC50 (Calu-1 cells): ≤ 10 nM | IC50 (MCF7 cells): < 50 nM | activity at 0.01 µM (CDK4 [1]): > 85% | activity at 0.1 µM (CDK4 [1]): > 85%

COC1(C(=O)N2CCC(N3CCN(c4ccc(Nc5ncc6c(C)c(C(C)=O)c(=O)n(C7CCCC7)c6n5)nc4)CC3)C2)CCC(Nc2nc(NC(C)C)ccc2C(=O)Nc2ccc(N(C)C)nn2)CC1 (stereo not shown) [CPD-536, 2-((4-(3-(4-(6-((6-acetyl-8-cyclopentyl-5-methyl-7-oxo-7,8-dihydropyrido[2,3-d]pyrimidin-2-yl)amino)pyridin-3-yl)piperazin-1-yl)pyrrolidine-1-carbonyl)-4-methoxycyclohexyl)amino)-N-(6-(dimethylamino)pyridazin-3-yl)-6-(isopropylamino)nicotinamide]
IC50 (Calu-1 cells): ≤ 10 nM | IC50 (MCF7 cells): < 50 nM | activity at 0.01 µM (CDK4 [1]): > 85% | activity at 0.1 µM (CDK4 [1]): 55 to 85%

CCc1ccc(C(=O)Nc2ccc(N(C)C)nn2)c(N[C@H]2CC[C@H](C(=O)N3CCC(N4CCN(c5ccc(Nc6ncc7c(C)c(C(C)=O)c(=O)n(C8CCCC8)c7n6)nc5)CC4)C3)CC2)n1 (stereo partly shown) [CPD-492, 2-((4-(3-(4-(6-((6-acetyl-8-cyclopentyl-5-methyl-7-oxo-7,8-dihydropyrido[2,3-d]pyrimidin-2-yl)amino)pyridin-3-yl)piperazin-1-yl)pyrrolidine-1-carbonyl)cyclohexyl)amino)-N-(6-(dimethylamino)pyridazin-3-yl)-6-ethylnicotinamide]
IC50 (Calu-1 cells): ≤ 10 nM | IC50 (MCF7 cells): < 50 nM | activity at 0.01 µM (CDK4 [1]): > 85% | activity at 0.1 µM (CDK4 [1]): > 85%

CC(=O)c1c(C)c2cnc(Nc3ccc(N4CCN(CC(=O)NC5CC6(C5)CC(Nc5nc(NC(C)C)ccc5C(=O)Nc5cc(C)on5)C6)CC4)cn3)nc2n(C2CCCC2)c1=O (stereo not shown) [CPD-199, 2-((6-(2-(4-(6-((6-acetyl-8-cyclopentyl-5-methyl-7-oxo-7,8-dihydropyrido[2,3-d]pyrimidin-2-yl)amino)pyridin-3-yl)piperazin-1-yl)acetamido)spiro[3.3]heptan-2-yl)amino)-6-(isopropylamino)-N-(5-methylisoxazol-3-yl)nicotinamide]
IC50 (Calu-1 cells): ≤ 10 nM | IC50 (MCF7 cells): 50 to 100 nM | inhibition at 0.04 µM (CDK4 [2]): 50 to 80% | inhibition at 0.2 µM (CDK4 [2]): 50 to 80%

CNc1ccc(C(=O)Nc2cccc(C)n2)c(NC2CC3(C2)CN(C(=O)C2(CN4CCN(c5ccc(Nc6ncc7c(C)c(C(C)=O)c(=O)n(C8CCCC8)c7n6)nc5)CC4)CC2)C3)n1 [CPD-171, 2-((2-(1-((4-(6-((6-acetyl-8-cyclopentyl-5-methyl-7-oxo-7,8-dihydropyrido[2,3-d]pyrimidin-2-yl)amino)pyridin-3-yl)piperazin-1-yl)methyl)cyclopropane-1-carbonyl)-2-azaspiro[3.3]heptan-6-yl)amino)-6-(methylamino)-N-(6-methylpyridin-2-yl)nicotinamide]
IC50 (Calu-1 cells): ≤ 10 nM | IC50 (MCF7 cells): < 50 nM | inhibition at 0.04 µM (CDK4 [2]): > 80% | inhibition at 0.2 µM (CDK4 [2]): > 80%

CNc1ccc(C(=O)Nc2ccc(N(C)C)nn2)c(NC2CC3(C2)CC(OC(C)C(=O)N2CCN(c4ccc(Nc5ncc6c(C)c(C(C)=O)c(=O)n(C7CCCC7)c6n5)nc4)CC2)C3)n1 (stereo not shown) [CPD-189, 2-((6-((1-(4-(6-((6-acetyl-8-cyclopentyl-5-methyl-7-oxo-7,8-dihydropyrido[2,3-d]pyrimidin-2-yl)amino)pyridin-3-yl)piperazin-1-yl)-1-oxopropan-2-yl)oxy)spiro[3.3]heptan-2-yl)amino)-N-(6-(dimethylamino)pyridazin-3-yl)-6-(methylamino)nicotinamide]
IC50 (Calu-1 cells): 10 to 50 nM | IC50 (MCF7 cells): > 100 nM | inhibition at 0.04 µM (CDK4 [2]): 50 to 80% | inhibition at 0.2 µM (CDK4 [2]): 50 to 80%

CNc1ccc(C(=O)Nc2cccc(C)n2)c(NC2CC(CNC(=O)CN3CCN(c4ccc(Nc5ncc6c(C)c(C(C)=O)c(=O)n(C7CCCC7)c6n5)nc4)CC3)C2)n1 (stereo not shown) [CPD-170, 2-((3-((2-(4-(6-((6-acetyl-8-cyclopentyl-5-methyl-7-oxo-7,8-dihydropyrido[2,3-d]pyrimidin-2-yl)amino)pyridin-3-yl)piperazin-1-yl)acetamido)methyl)cyclobutyl)amino)-6-(methylamino)-N-(6-methylpyridin-2-yl)nicotinamide]
IC50 (Calu-1 cells): ≤ 10 nM | IC50 (MCF7 cells): 50 to 100 nM | inhibition at 0.04 µM (CDK4 [2]): 50 to 80% | inhibition at 0.2 µM (CDK4 [2]): > 80%

CNc1ccc(C(=O)Nc2ccc(N(C)C)nn2)c(NC2CCN(C(=O)CN3CCN(c4ccc(Nc5ncc6c(C)c(C(C)=O)c(=O)n(C7CCCC7)c6n5)nc4)CC3)CC2)n1 [CPD-200, 2-((1-(2-(4-(6-((6-acetyl-8-cyclopentyl-5-methyl-7-oxo-7,8-dihydropyrido[2,3-d]pyrimidin-2-yl)amino)pyridin-3-yl)piperazin-1-yl)acetyl)piperidin-4-yl)amino)-N-(6-(dimethylamino)pyridazin-3-yl)-6-(methylamino)nicotinamide]
IC50 (Calu-1 cells): ≤ 10 nM | IC50 (MCF7 cells): 50 to 100 nM | inhibition at 0.04 µM (CDK4 [2]): 50 to 80% | inhibition at 0.2 µM (CDK4 [2]): 50 to 80%

CNc1ccc(C(=O)Nc2ccc(N(C)C)nn2)c(NC2CCC3(C2)CN(C(=O)CCN2CCN(c4ccc(Nc5ncc6c(C)c(C(C)=O)c(=O)n(C7CCCC7)c6n5)nc4)CC2)C3)n1 (stereo not shown) [CPD-158, 2-((2-(3-(4-(6-((6-acetyl-8-cyclopentyl-5-methyl-7-oxo-7,8-dihydropyrido[2,3-d]pyrimidin-2-yl)amino)pyridin-3-yl)piperazin-1-yl)propanoyl)-2-azaspiro[3.4]octan-6-yl)amino)-N-(6-(dimethylamino)pyridazin-3-yl)-6-(methylamino)nicotinamide]
IC50 (Calu-1 cells): ≤ 10 nM | IC50 (MCF7 cells): < 50 nM | inhibition at 0.04 µM (CDK4 [2]): 50 to 80% | inhibition at 0.2 µM (CDK4 [2]): > 80%

CNc1ccc(C(=O)Nc2ccc(N(C)C)nn2)c(NCC2CCN(C(=O)CCN3CCN(c4ccc(Nc5ncc6c(C)c(C(C)=O)c(=O)n(C7CCCC7)c6n5)nc4)CC3)CC2)n1 [CPD-146, 2-(((1-(3-(4-(6-((6-acetyl-8-cyclopentyl-5-methyl-7-oxo-7,8-dihydropyrido[2,3-d]pyrimidin-2-yl)amino)pyridin-3-yl)piperazin-1-yl)propanoyl)piperidin-4-yl)methyl)amino)-N-(6-(dimethylamino)pyridazin-3-yl)-6-(methylamino)nicotinamide]
IC50 (Calu-1 cells): ≤ 10 nM | IC50 (MCF7 cells): < 50 nM | inhibition at 0.04 µM (CDK4 [2]): 50 to 80% | inhibition at 0.2 µM (CDK4 [2]): > 80%
